Data reported in patent publication US20240269292A1.
Entries after “also recorded” stand apart in the source; their conditions may differ. Non-standard residues stand in square brackets, D forms with d. Residues, ends and D or L forms follow the SMILES beside them. Dmt = Cc1cc(O)cc(C)c1C[C@H](N)C(=O)O

How the values were obtained:
[1] = tested on: retinal pigment epithelium (RPE) cells; format: cell-based
Description: (§1) Cells are then treated with drug (or control phosphate-buffered saline (PBS) solution) and assayed for effects on mitochondrial dysfunction and other cellular changes.
Mitochondrial dysfunction is manifest as increased flavoprotein autofluorescence (upper panels) and as dysmorphology of the actin cytoskeleton (lower panels). […] EY005-stearyl was also preincubated with carboxyesterase (0.1 μg/mL) in separate media.
(§2) Mitochondrial dysfunction can be modeled using in vitro cell culture systems relevant to retinal disease. In one such system, retinal pigment epithelium (RPE) cells are cultured to post-confluence to establish a differentiated cell monolayer and are then assayed for mitochondrial dysfunction and effect of drugs for treatment of mitochondrial dysfunction (FIG. 5). In this model, mitochondrial dysfunction is induced by two exposures to nonlethal doses of hydroquinone (HQ) at day −3 and day 0. Hydroquinone (HQ), a well-known environmental toxicant ubiquitously present in Western lifestyle, is a biochemical inducer of mitochondrial dysfunction. When HQ is added to fully differentiated RPE cell cultures, HQ competes with mitochondrial ubiquinone, siphoning high-energy electrons from electron transport chain, which then reduces oxygen into superoxide, leading to cardiolipin peroxidation and mitochondrial dysfunction. Cells are then treated with a drug of interest (mitochondrial targeted peptide drug or a prodrug thereof) or control (phosphate-buffered saline (PBS) solution and assayed for effects on mitochondrial dysfunction, as measured by microscopy of flavoprotein autofluorescence (a measure of mitochondrial electron transport chain complex II decompensation) (FIG. 6).

[2] = tested on: RPE cells of rabbit eyes; experiment: Rabbit ocular hydroquinone (HQ) model of dry AMD (DCFDA, vimentin, phalloidin on RPE flatmounts); format: in vivo
Description: FIG. 12 illustrates one example of a relevant animal model, specifically a rabbit-based protocol used to characterize the prodrugs of mitochondrial targeted tetrapeptides described herein. In this model, HQ (0.05 mL, 250 mM HQ) is injected into the vitreous cavity of rabbit eye on day 0 and day 1, and drug of interest (mitochondrial targeted peptide or prodrug thereof) or control (PBS) solution is injected into the same vitreous cavity of the rabbit eye at day 2. At day 4, the rabbit is euthanized, and eyes recovered for histologic analysis of retina and RPE flatmounts for various metrics, including cellular oxidation (DCFDA), as a surrogate of mitochondrial dysfunction, as well as for other cellular markers.
The rabbit hydroquinone (HQ) model of dry AMD (FIG. 12) was induced and flatmount of retinal pigment epithelium (RPE) were isolated.
Scores were determined by masked expert graders in at least 100 RPE cells from at least 3 eyes per condition.
A rabbit model of mitochondrial dysfunction is also used to assay bioactivity of MTT and prodrugs derived thereof. […] On day 2, the MTT (e.g., EY005, 15 μM) were injected IVT. On day 3, a fluorogenic dye that measures hydroxyl, peroxyl and other reactive oxygen species (e.g., DCFDA) was injected IVT, and tissues were collected 12 hours later. RPE flatmounts were processed for multiple readouts: oxidation byproducts (DCFDA, FIG. 13) and measures of RPE-associated extracellular matrix (cytosolic vimentin expression, FIG. 14), and RPE cell dysmorphology (i.e., actin cytoskeleton (phalloidin), FIG. 14). All were analyzed and quantified by microscopy.
For example, in the rabbit ocular hydroquinone model, systemic administration of the maximally tolerated human dose of mitochondrial-targeted peptide (EY005) allometrically scaled for the rabbit, only partially restores RPE actin cytoskeletal integrity (FIG. 15D). In contrast, IVT injection of EY005 results in downregulation of RPE vimentin expression (FIG. 14) and restoration of normal RPE actin cytoskeleton integrity (FIG. 15C). […] IVT EY005 treatment produced an approximately 75% reduction of oxidation byproducts. […] In this setting, retinal and RPE tissue levels achieved by IVT administration in rabbits are substantially higher than tissue levels obtained by SQ administration of the maximally tolerated human dose allometrically scaled for rabbits.

[3] = tested on: mouse retinal tissues; experiment: Mouse experimental retinal vein occlusion (RVO) model; format: in vivo
Source text: Control, untreated mice show undetectable FP-AF and superoxide.
Control, untreated mice show normal synaptic markers.
FIGS. 11H-111 show visual function as quantified by electroretinogram (ERG) in mice treated with control, RVO and RVO with EY005 pretreatment or EY005 post-treatment. B-wave amplitudes were quantified from at least 5 eyes for each condition.

[4] = Accelerated in vitro release assay with complexation agents in methyl laurate; format: physicochemical; settings: EY005 MTT formulated with various complexation agents, methyl laurate dispersal medium
Source text: In all cases, all EY005 was rapidly released, in some cases within hours, and in all cases by day 3.

[5] = In vitro release kinetics of pilot formulation of Mito XR; format: physicochemical; settings: same complexation agent and dispersal medium as Mito XR
[6] = rabbit
Source text: In some examples, cleavage and release of the free bioactive mitochondrial targeted tetrapeptide can be assessed following in vivo injection of the implant containing the prodrug within the extended release drug delivery system into the vitreous cavity or periocular tissues of a preclinical animal model (e.g., mouse, rat, rabbit, pig, etc.) (FIG. 29), wherein ocular tissue is recovered, and analytic methods such as HPLC or mass spectrometry can be used to calculate the amount of free bioactive mitochondrial targeted tetrapeptide and intact prodrug, at various timepoints after in vivo injection.

[7] = Theoretical in vivo release pharmacokinetics from XRDDS in vitreous cavity of rabbit eyes (FIGS. 31-32); settings: theoretical data
Source text: (§3) FIG. 31 illustrates theoretical in vivo release pharmacokinetic data comparing release kinetics of unmodified EY005 from the novel extended-release drug delivery system to that of two EY005 prodrugs, each of which is also formulated in the novel extended-release drug delivery system and injected into the vitreous cavity of rabbit eyes.
as §3, with “32” for “31”

[8] = tested on: retinal pigment epithelium (RPE) cells; experiment: HQ-induced mitochondrial dysfunction in RPE cells (flavoprotein autofluorescence); format: cell-based; settings: HQ-exposed RPE cells, versus elamipretide or native EY005
Description: as §1
as §2, with “When HQ is added to fully differentiated RPE cell cultures, HQ competes with mitochondrial ubiquinone, siphoning high-energy electrons from electron transport chain, which then reduces oxygen into superoxide, leading to cardiolipin peroxidation and mitochondrial dysfunction.” left out

[9] = tested on: retinal pigment epithelium (RPE) cells; experiment: Dysregulated extracellular matrix (vimentin) in HQ-exposed RPE cells; format: cell-based; settings: ≥5 μM
Description: as §1
as §2, with “When HQ is added to fully differentiated RPE cell cultures, HQ competes with mitochondrial ubiquinone, siphoning high-energy electrons from electron transport chain, which then reduces oxygen into superoxide, leading to cardiolipin peroxidation and mitochondrial dysfunction.” left out

[10] = tested on: retinal pigment epithelium (RPE) cells; experiment: Actin cytoskeleton disorganization (phalloidin) in HQ-exposed RPE cells; format: cell-based; settings: 5 μM
Description: as §1
as §2, with “When HQ is added to fully differentiated RPE cell cultures, HQ competes with mitochondrial ubiquinone, siphoning high-energy electrons from electron transport chain, which then reduces oxygen into superoxide, leading to cardiolipin peroxidation and mitochondrial dysfunction.” left out

[11] = tested on: rabbit RPE; experiment: Rabbit ocular hydroquinone (HQ) model of dry AMD; format: in vivo
[12] = In vivo kinetics after intravitreal Mito XR bolus in rabbit eyes, LC/MS
[13] = Hydrophobicity and aqueous solubility; format: physicochemical
[14] = cultured RPE cells, dose-response
[15] = cultured RPE cells, high dose (≥5 μM)
[16] = rabbit, single IVT dose of 15 μg, 36 hrs. after drug treatment

Question: What does the source list for `Cc1cc(O)cc(C)c1C[C@H](NC(=O)[C@H](N)CCCNC(=N)N)C(=O)N[C@@H](CCCCN)C(=O)N[C@@H](Cc1ccccc1)C(=O)O` [EY005, H-d-Arg-DMT-Lys-Phe] (H-[dR][Dmt]KF-OH)?
Answer: reversal of HQ-induced mitochondrial dysfunction (flavoprotein autofluorescence) ([1]; HQ-exposed cultured RPE cells): reversal of induced mitochondrial dysfunction; also recorded: near complete reversal of mitochondrial dysfunction; efficacy and potency for reduction of flavoprotein autofluorescence compared to elamipretide ([1]; HQ-exposed cultured RPE cells, dose-response): equivalent efficacy and potency; also recorded: comparable or equivalent dose-response and potency to elamipretide; efficacy and potency for reversal of actin cytoskeleton disorganization compared to elamipretide [1, 14]: equivalent efficacy and potency; efficacy and potency for reversal of dysregulated extracellular matrix (vimentin) compared to elamipretide [1, 14]: equivalent efficacy and potency; reversal of actin cytoskeleton disorganization (phalloidin staining) [1, 15]: reversal of actin cytoskeleton disorganization; reversal of dysregulated extracellular matrix (vimentin expression) [1, 15]: reversal of dysregulated extracellular matrix; reversal of mitochondrial dysfunction (oxidant species) in RPE of rabbit eyes ([2]; rabbit HQ model, 15 μM IVT, within 36 hours of treatment): reduced oxidant species; also recorded: potent for reversal of mitochondrial dysfunction; reversal of RPE cytoskeletal dysmorphology, intravitreal ([2]; rabbit HQ model, intravitreal 15 μM): near complete reversal of RPE cytoskeletal dysmorphology; reversal of RPE cytoskeletal dysmorphology, subcutaneous ([2]; rabbit HQ model, subcutaneous 0.9 mg/kg once daily): only partial reversal of RPE cytoskeletal dysmorphology; retinal toxicity ([2]; rabbit, single IVT dose of 15 μg): no retinal toxicity was observed; reduction of cytoskeleton disorganization (phalloidin) [2, 16]: approximately 80%; reduction of oxidation byproducts (DCFDA) [2, 16]: approximately 75%; reversal of vimentin stain [2, 16]: approximately 90%; markers of mitochondrial dysfunction (flavoprotein autofluorescence and superoxide) following RVO ([3]; mouse, 3 mg/kg BID subcutaneous): significantly attenuates both markers of mitochondrial dysfunction; synaptic markers (SV2, ZNP-1) in inner and outer plexiform layers following RVO ([3]; mouse, 3 mg/kg BID subcutaneous, pretreatment or posttreatment): significantly prevents (pretreatment) and reverses (posttreatment) loss of synaptic markers; ERG B-wave amplitude following RVO ([3]; mouse, pretreatment or post-treatment): significantly prevented or reversed loss of B-wave amplitude; efficacy in treatment of mouse model of RVO ([3]; systemic dose greater than the maximally tolerated dose in humans (allometrically scaled)): partially effective; time by which all EY005 was released [4]: ≤ 3 days; release of native peptide formulated identically to Mito XR [5]: extremely rapid release; also recorded: excessive release; residual drug in recovered bolus, native peptide formulation ([6]; IVT bolus formulation of EY005 native peptide): contained no EY005 native peptide; also recorded: no residual drug in the recovered bolus; time by which tissue concentrations were nearly undetectable ([6]; IVT identical bolus formulation containing EY005 native peptide): ≤ 3.5 week; time beyond which EY005 tissue levels were not detectable ([6]; IVT multiphasic colloidal suspension bolus of EY005 native peptide): ≤ 21 days; time to nearly complete release of unmodified EY005 from XRDDS [7]: approximately 30 days; Potency for reversal of mitochondrial dysfunction relative to comparator [8]: equipotent to elamipretide; Reversal of dysregulated extracellular matrix (vimentin) [9]: reverses dysregulation of RPE extracellular matrix; Reversal of actin cytoskeleton disorganization [10]: restores normal RPE cell morphology; Reversal of RPE cytoskeletal dysmorphology ([11]; 0.9 mg/kg subcutaneous once daily): only partially effective; Efficacy of intravitreal versus subcutaneous administration ([11]; intravitreal injection): significantly more effective; Residual drug in recovered bolus ([12]; bolus formulation of EY005 native peptide): no residual drug; Retinal tissue concentrations ([12]; through 7-week timepoint (Mito XR), week 3.5 (EY005 native peptide bolus)): nearly undetectable; Hydrophobicity [13]: highly hydrophilic; Aqueous solubility ([13]; native form): high aqueous solubility
